This note sets out measurements from US20220324958A1, “ANTI-INFLAMMATORY PEPTIDES, PHARMACEUTICAL COMPOSITION CONTAINING SUCH PEPTIDES, AND USES THEREOF” (INSTITUTO BUTANTAN, priority 2019, published 2022).

“Also recorded” adds a separate entry of the source.

Test [1] concerns osteoclast precursors (PBMNC). Briefly: Osteoclast differentiation model, TRAP+ cell count. The format is cell-based, human. To be noted: peptide 200 nM added on day four to osteoclast precursor culture, 15 days; compared to positive control (CTRL). As for the experimental part:
A. Positive differentiation controls. B. Influence of synthetic peptides (200 nM) on osteoclast differentiation. C. Negative differentiation control. αMEM—Minimum Essential Medium Eagle Alpha Modification; FBS—fetal bovine serum; TRANCE—Tumor Necrosis Factor (TNF)-related Activation-induced Cytokine; M-CSF—Macrophage Colony-Stimulating Factor; TGF-β1—Transforming growth factor beta-1.
The present invention includes the culture of monocytic cells of human leukemia (THP-1), osteoclast, primary human blood-derived mononuclear cells (PBMNC), and human chondrocytes (NHAC-kn).
Negative differentiation controls. B. Influence of synthetic peptides (200 nM) on osteoclast differentiation.
PBMNC were isolated and, immediately after, plating inductive culture medium (composed of Alpha-MEM+10% FBS+MCSF [25 ng/mL]+RANKL [50 ng/mL]+TGF-beta 1 [5 ng/mL]+Dexamethasone [1 μM]) was added for 15 days. On day four, the L. obliqua venom at a concentration of […] or toxins at a concentration of 200 nM, each individually, was added to the osteoclast precursor culture and these culture conditions were maintained until the end of the differentiation. Then, the cells were fixed and stained with tartrate-resistant acid phosphatase (TRAP).

Test [2] has as its system neurons obtained from SHSY5Y cells. Briefly: Anti-nociceptive/anti-inflammatory model, neurons stimulated with glycated collagen (GC): substance P and β-endorphin in supernatant. The format is cell-based. As for the experimental part: ANOVA and Dunnet * p<0.05; ** p<0.01 compared to glycated collagen (GC);
ANOVA and Dunnet * p<0.05 ** p<0.01, *** p<0.001 compared with GC;
The differentiation process consists of 6 stages distributed over 7 days. On the first day of the differentiation protocol (day 0), cells were seeded in collagen-coated plates. On days 1, 3, and 4 the culture medium was removed, and the differentiation medium containing 2% fetal bovine serum (FBS) and retinoic acid (RA) 10 μM) was added. On day 5, the medium was removed and the culture was incubated with culture medium and brain-derived neurotrophic factor (BDNF) (50 ng/mL). On day 7 of the differentiation process, differentiated neurons are fully ready for use (Agholme et al., 2010, with some modifications).
7×10^3 neurons/well were incubated with 10 μM of morphine (inhibitory response control) or peptides (200 nM and 500 nM) 3 hours before or 3 hours after incubation with IL-1β (10 ng/mL) or glycated collagen (GC) (100 μg/mL) (both positive controls for the release of substance P). After 24 hours of incubation, the cell viability assay and the detection of substance P and β-endorphin in the supernatant were performed. Multiplex with magnetic spheres (MILLIPLEX® MAP Magnetic Bead Panel)
ANOVA and Dunnet * p<0.05; ** p<0.01 compared to GC.
ANOVA and Dunnet * p<0.05 ** p<0.01, *** p<0.001 compared to GC.

Test [3] has as its system human chondrocytes (NHAC-kn). Briefly: Pro-inflammatory model of chondrocytes treated with IL-1β, cytokine release (Multiplex). The format is cell-based. To be noted: chondrocytes treated with IL-1β (1 ng/mL). As for the experimental part: Values were obtained from each analyte in pg/mL from treatment with the peptides in the presence of IL-1β (1 ng/mL). The data are presented as the mean±MSE (* p<0.05 when compared to the control with IL-1β, test t, n=3).
(B) Chondrocytes were pretreated for 1 hour with IL-1β (1 ng/mL) before the addition of peptides (200 nM, 500 nM, and 1.25 μM) and an additional incubation of 24 hours before collecting the supernatants.
The primary human chondrocytes used in this assay were purchased from Lonza: Normal Human Articular Primary chondrocytes (NHAC-Kn, #CC-2550, Lot 8F3336). Chondrocyte cell culture was performed in bottles (Sarstedt T175 and T75). The cells were cultivated in DMEM culture medium (Sigma) supplemented with 10% fetal bovine serum (FBS) (Sigma), incubated in an oven at 37° C. and 5% CO2, and cultures were used in the sixth passage. The culture medium was changed every two days until the culture reached 80% confluence.
The identification and quantitative analysis of the cytokines present in the peptide treatment supernatant were performed using the Luminex xMAP Milliplex MAP Human Cytokine/Chemokine Magnetic Bead Panel Catalog #HCYTOMAG-60K technology, according to the manufacturer's instructions.
Values were obtained from each analyte in pg/mL from treatment with the peptides in the presence of IL-1β (1 ng/mL). The data are presented as the mean±MSE (*p<0.05 when compared to the control with IL-1β, test t, n=3).

Test [4] deals with THP-1 cells differentiated into macrophages. The test can be described thus: LPS-induced cytokine production in THP-1-derived macrophages (Multiplex). The format is cell-based, human. As for the experimental part: THP-1 cells differentiated into macrophages were induced with LPS (10 ng/mL) and, one hour later, treated with synthetic peptides at a concentration of 200 nM. Dexamethasone (10 μM), an inflammatory inhibitor, was used as a control. After 24 hours, the culture medium was collected to measure the IL-1β (A), IL-6 (B), TNF-α (C), and IL-10 cytokines using a Multiplex kit. * p<0.05 vs. LPS; ** p<0.01 vs. LPS; *** p<0.005 vs. LPS;
THP-1 cells differentiated into macrophages were induced with LPS (10 ng/mL) and, one hour later, treated with L4 or D3 peptide (0.05 μM, 0.2 μM, 1 μM, and 2 μM). After 24 hours, the culture medium was collected and TNF-alpha, IL-6, IL-23, and IL-8 were measured by Multiplex. (A) L4 peptide. (B) D3 peptide;
Macrophages were obtained from the differentiation of monocytes THP-1. Briefly, 1×10^7 cells were treated in the RPMI medium with 25 nM PMA for 48 hours followed by 24 hours of rest in medium without PMA. Subsequently, the cells were released and plated for the respective treatments.
The kit is based on Luminex® xMAP® technology that allows the simultaneous analysis of various cytokines. The technique is based on marked magnetic fluorescent spheres, known as MagPlex®-C microspheres. These microspheres are covered with capture antibodies specific for IL-6 […], and specifically capture the analyte in the supernatant. Each microsphere was individually identified and the results were analyzed using Luminex® Xponent® 4.2 acquisition software.
THP-1 cells differentiated into macrophages were induced with LPS (10 ng/mL) and, one hour later, treated with synthetic peptides, […] (inflammation inhibitor, 10 μM). After 24 hours, the culture medium was collected and IL-1β (A), IL-6 (B), TNF-α (C), and IL-10 were measured by Multiplex. * p<0.05 vs. LPS; ** p<0.01 vs. LPS; *** p<0.005 vs. LPS.
THP-1 cells differentiated into macrophages were induced with LPS (10 ng/mL) and, one hour after, treated with L4 (0.05 μM, 0.2 μM, 1 μM, and 2 μM). After 24 hours, the culture medium was collected and TNF-α, IL-6, IL-23, and IL-8 were measured by Multiplex. (A) L4 peptide. (B) D3 peptide.

The mark [5] stands for this setting: peptide 200 nM incubated 3 hours after GC (100 μg/mL).
Setting [6] is: LPS 10 ng/mL, peptide 200 nM one hour later, 24 hours, vs group treated only with LPS.
The mark [7] stands for this setting: dose-response 0.05, 0.2, 1 and 2 μM, LPS 10 ng/mL, 24 hours.

In the case of “EEQTHFHFESPKLISFKVQDYWILNDIMKKNLTGISLKSEEEDADSGEID (Designated peptide based on the motif of a group of proteins called hemoline from lepidoptera acting as an anti-inflammatory molecule) [Cambly, peptide derived from the Amblyomin-X molecule with characteristics of CPP (cell-penetrating peptides)]”, in test [1], the “number of TRAP+ cells” value is “reduced”. Besides, the “production of Substance P” value in test [2] (setting [5]) was “significantly inhibited”; in test [2] (peptide (200 nM and 500 nM) incubated 3 hours before GC (100 μg/mL)), “significantly decrease; also recorded: inhibited”. The “production of β-endorphin” value is given as “increased” in test [2] (setting [5]) and “did not affect” in test [2] (peptide incubated 3 hours before GC (100 μg/mL)).
Turning to “IWTKDGKAIT (Designated peptide based on the motif of a group of proteins called hemoline from lepidoptera acting as an anti-inflammatory molecule) [L1]”, the “anti-inflammatory activity (release of G-CSF, GM-CSF, IL-6, IL-8, MCP-1, TNF-α)” value in test [3] is listed as “anti-inflammatory activity”.
Turning to “NYFKNGKDVN (Designated peptide based on the motif of a group of proteins called hemoline from lepidoptera acting as an anti-inflammatory molecule) [L2]”, the “anti-inflammatory activity (release of G-CSF, GM-CSF, IL-6, IL-8, MCP-1, TNF-α)” value in test [3] was “anti-inflammatory activity”. The “number of TRAP+ cells” value in test [1] is on record as “no statistically significant difference”.
“QPEISWTRNK (Designated peptide based on the motif of a group of proteins called hemoline from lepidoptera acting as an anti-inflammatory molecule) [L6]”: in test [3], the “anti-inflammatory activity (release of G-CSF, GM-CSF, IL-6, IL-8, MCP-1, TNF-α)” value is recorded as “anti-inflammatory activity”.
The same measure, in the same setting: then “RWLKDGQAFH (Designated peptide based on the motif of a group of proteins called hemoline from lepidoptera acting as an anti-inflammatory molecule) [L8]”, with “anti-inflammatory activity”; and “SWLKNGREFR (Designated peptide based on the motif of a group of proteins called hemoline from lepidoptera acting as an anti-inflammatory molecule) [L5]”, with “anti-inflammatory activity”.
In the case of “TWNKKGKKVN (Designated peptide based on the motif of a group of proteins called hemoline from lepidoptera acting as an anti-inflammatory molecule) [L4]”, the “anti-inflammatory activity (release of G-CSF, GM-CSF, IL-6, IL-8, MCP-1, TNF-α)” value in test [3] was “anti-inflammatory activity”. The “levels of IL-10 (anti-inflammatory cytokine)” value in test [4] (LPS 10 ng/mL, peptide 200 nM one hour later, 24 hours) was “increase”. Further, in test [4] (setting [6]), the “levels of IL-1β” value is “significantly reducing”, the “levels of IL-6” value is given as “significantly reducing” and the “levels of TNF-a” value is reported as “significantly reducing”. Further, in test [4] (setting [7]), the “dose achieving the greatest inhibition of IL-6 release” value is given as 200 nM, the “dose achieving the greatest inhibition of IL-8 release” value was 200 nM, the “most effective dose concerning IL-23 release” value worked out at 1 µM and the “most effective dose concerning TNF-α release” value turned out to be 1 µM. For the same molecule, the “production of inflammatory cytokines in response to LPS (dose-dependent)” value in test [4] (dose-response 0.05-2 μM, TNF-α, IL-6, IL-23, IL-8) is on record as “reduced”.
Consider “VWRKNGKKVS (Designated peptide based on the motif of a group of proteins called hemoline from lepidoptera acting as an anti-inflammatory molecule) [L3]”, for which the “anti-inflammatory activity (release of G-CSF, GM-CSF, IL-6, IL-8, MCP-1, TNF-α)” value in test [3] is “anti-inflammatory activity”.
On to “YSIVAGCL (Designated peptide based on the motif of a group of proteins called hemoline from lepidoptera acting as an anti-inflammatory molecule) [E8]”, for which, in test [3], the “anti-inflammatory activity (release of G-CSF, GM-CSF, IL-6, IL-8, MCP-1, TNF-α)” value is reported as “anti-inflammatory activity”. Further, in test [2] (setting [5]), the “production of Substance P” value was “significantly inhibited” and the “production of β-endorphin” value is “increased”.

B1: YSIVAGSLGGGGEEQTHFHFESPKLISFKVQDYWILNDIMKKNLTGISLKSEEEDADSGEID (peptide)
chain: YSIVAGSLGGGGEEQTHFHFESPKLISFKVQDYWILNDIMKKNLTGISLKSEEEDADSGEID
modifications: Designated peptide based on the motif of a group of proteins called hemoline from lepidoptera acting as an anti-inflammatory molecule
B1: the “number of TRAP+ cells” value in test [1] is “significant decrease; also recorded: reduced”.

B2: YAIGYSSKDYKGGGGEEQTHFHFESPKLISFKVQDYWILNDIMKKNLTGISLKSEEEDADSGEID (peptide)
chain: YAIGYSSKDYKGGGGEEQTHFHFESPKLISFKVQDYWILNDIMKKNLTGISLKSEEEDADSGEID
modifications: Designated peptide based on the motif of a group of proteins called hemoline from lepidoptera acting as an anti-inflammatory molecule
As for B2, in test [2] (setting [5]), the “production of Substance P” value is listed as “significantly inhibited” and the “production of β-endorphin” value was “increased”.
